Calls of active or inactive are those of the source.
How the values were obtained:
BJ [1] = test: cells; type: functional, cell-based; settings: Homo sapiens
BJ [2] = test: BJ-TERT-LT-ST fibroblast viability loss – cell-based, RAS-independent, luminescence, dose response (AID 1935); type: functional; settings: Homo sapiens;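 also: BJ fibroblasts immortalized with TERT plus LT and ST oncogenes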
[3] = target: Neurotensin receptor type 1 (Homo sapiens, UniProt P30989); type: functional;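 also: Image-based confirmatory dose-response assay measuring agonist activity at NTR1; NTR1-expressing U2OS osteosarcoma cells imaged for beta-arrestin GFP spot formation; agonist potency where compounds increase beta-arrestin recruitment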
Chain of Neurotensin receptor type 1 (P30989 whole entry): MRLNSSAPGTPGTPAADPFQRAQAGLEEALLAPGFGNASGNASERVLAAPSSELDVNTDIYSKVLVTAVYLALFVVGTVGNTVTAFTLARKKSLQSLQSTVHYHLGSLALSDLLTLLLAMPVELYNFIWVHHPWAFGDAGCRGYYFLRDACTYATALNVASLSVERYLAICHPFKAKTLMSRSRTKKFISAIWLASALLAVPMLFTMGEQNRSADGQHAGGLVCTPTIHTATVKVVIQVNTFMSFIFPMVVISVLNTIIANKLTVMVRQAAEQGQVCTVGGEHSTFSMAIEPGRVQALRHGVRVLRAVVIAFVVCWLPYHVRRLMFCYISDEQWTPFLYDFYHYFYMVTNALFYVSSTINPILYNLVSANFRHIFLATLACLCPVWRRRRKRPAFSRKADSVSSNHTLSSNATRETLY

[4] = microbe, parasite or virus in culture; type: functional; settings: Mycobacterium tuberculosis
[5] = DRD fibroblast viability loss – cell-based, non-viral oncogenic, luminescence, dose response (AID 1934); type: functional; settings: Homo sapiens
BJ [6] = test: BJ-TERT fibroblast viability loss – cell-based, RAS-independent, luminescence, dose response (AID 1933); type: functional; settings: Homo sapiens
[7] = target: Cyclin-dependent kinase 5/CDK5 activator 1 (Homo sapiens, UniProt Q00535); test: blockade of human CDK5 activity – biochemical, cherry-picked samples, set 2, dose response (AID 504545)
Chain of Cyclin-dependent kinase 5/CDK5 activator 1 (Q00535 whole entry): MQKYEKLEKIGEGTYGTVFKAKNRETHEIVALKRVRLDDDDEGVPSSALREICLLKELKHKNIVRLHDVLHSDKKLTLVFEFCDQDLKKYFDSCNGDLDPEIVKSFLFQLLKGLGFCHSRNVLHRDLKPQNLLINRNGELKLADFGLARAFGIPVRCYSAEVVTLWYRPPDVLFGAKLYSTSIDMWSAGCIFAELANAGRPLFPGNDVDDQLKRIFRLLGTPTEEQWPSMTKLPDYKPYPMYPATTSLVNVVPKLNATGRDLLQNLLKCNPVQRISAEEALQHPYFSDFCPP
Chain of Cyclin-dependent kinase 5/CDK5 activator 1 (Q15078 whole entry, further chain): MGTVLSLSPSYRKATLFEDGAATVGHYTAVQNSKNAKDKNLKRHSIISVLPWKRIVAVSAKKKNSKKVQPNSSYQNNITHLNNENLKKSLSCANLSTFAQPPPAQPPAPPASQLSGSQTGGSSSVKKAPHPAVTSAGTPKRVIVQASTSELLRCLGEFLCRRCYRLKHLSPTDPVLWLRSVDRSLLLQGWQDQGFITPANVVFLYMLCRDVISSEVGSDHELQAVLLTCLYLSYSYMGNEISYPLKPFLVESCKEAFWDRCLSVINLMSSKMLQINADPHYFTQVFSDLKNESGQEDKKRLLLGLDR

[8] = viability loss in HepG2 hepatoma cells – cell-based, ATP luminescence, cherry-pick, activator set 2, cytotoxicity control, dose response (AID 1053143); type: functional
[9] = target: T1, Oxysterols receptor LXR-beta (Homo sapiens, UniProt P55055); type: functional, cell-based;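 also: agonist activity at LXR measured by a cell-based luminescence readout across a dose range, run as a counterscreen for daf-12 agonists; HEK293 cells with Gal4-LXR fusion and GAL4-driven luciferase reporter; potency for activation of Gal4-LXR reporter so compounds are agonists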
T1 sequence (P55055 whole entry): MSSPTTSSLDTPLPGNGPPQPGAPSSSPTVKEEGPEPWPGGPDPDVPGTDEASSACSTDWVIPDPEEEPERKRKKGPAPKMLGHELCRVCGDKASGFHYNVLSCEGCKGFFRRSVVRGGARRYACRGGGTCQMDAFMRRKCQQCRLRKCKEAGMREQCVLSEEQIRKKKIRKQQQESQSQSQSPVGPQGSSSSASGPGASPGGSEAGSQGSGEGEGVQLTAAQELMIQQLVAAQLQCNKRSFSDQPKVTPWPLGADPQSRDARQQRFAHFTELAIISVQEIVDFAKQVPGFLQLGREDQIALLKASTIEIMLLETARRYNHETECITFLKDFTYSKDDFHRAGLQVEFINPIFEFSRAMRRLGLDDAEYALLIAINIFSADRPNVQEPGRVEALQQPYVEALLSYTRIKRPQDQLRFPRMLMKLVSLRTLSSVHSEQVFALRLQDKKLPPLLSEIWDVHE

[10] = target: Voltage-dependent T-type calcium channel subunit alpha-1H (Homo sapiens, UniProt O95180); type: functional;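 also: channel activity triggered by adding a high calcium stimulation buffer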
Chain of Voltage-dependent T-type calcium channel subunit alpha-1H (O95180 whole entry): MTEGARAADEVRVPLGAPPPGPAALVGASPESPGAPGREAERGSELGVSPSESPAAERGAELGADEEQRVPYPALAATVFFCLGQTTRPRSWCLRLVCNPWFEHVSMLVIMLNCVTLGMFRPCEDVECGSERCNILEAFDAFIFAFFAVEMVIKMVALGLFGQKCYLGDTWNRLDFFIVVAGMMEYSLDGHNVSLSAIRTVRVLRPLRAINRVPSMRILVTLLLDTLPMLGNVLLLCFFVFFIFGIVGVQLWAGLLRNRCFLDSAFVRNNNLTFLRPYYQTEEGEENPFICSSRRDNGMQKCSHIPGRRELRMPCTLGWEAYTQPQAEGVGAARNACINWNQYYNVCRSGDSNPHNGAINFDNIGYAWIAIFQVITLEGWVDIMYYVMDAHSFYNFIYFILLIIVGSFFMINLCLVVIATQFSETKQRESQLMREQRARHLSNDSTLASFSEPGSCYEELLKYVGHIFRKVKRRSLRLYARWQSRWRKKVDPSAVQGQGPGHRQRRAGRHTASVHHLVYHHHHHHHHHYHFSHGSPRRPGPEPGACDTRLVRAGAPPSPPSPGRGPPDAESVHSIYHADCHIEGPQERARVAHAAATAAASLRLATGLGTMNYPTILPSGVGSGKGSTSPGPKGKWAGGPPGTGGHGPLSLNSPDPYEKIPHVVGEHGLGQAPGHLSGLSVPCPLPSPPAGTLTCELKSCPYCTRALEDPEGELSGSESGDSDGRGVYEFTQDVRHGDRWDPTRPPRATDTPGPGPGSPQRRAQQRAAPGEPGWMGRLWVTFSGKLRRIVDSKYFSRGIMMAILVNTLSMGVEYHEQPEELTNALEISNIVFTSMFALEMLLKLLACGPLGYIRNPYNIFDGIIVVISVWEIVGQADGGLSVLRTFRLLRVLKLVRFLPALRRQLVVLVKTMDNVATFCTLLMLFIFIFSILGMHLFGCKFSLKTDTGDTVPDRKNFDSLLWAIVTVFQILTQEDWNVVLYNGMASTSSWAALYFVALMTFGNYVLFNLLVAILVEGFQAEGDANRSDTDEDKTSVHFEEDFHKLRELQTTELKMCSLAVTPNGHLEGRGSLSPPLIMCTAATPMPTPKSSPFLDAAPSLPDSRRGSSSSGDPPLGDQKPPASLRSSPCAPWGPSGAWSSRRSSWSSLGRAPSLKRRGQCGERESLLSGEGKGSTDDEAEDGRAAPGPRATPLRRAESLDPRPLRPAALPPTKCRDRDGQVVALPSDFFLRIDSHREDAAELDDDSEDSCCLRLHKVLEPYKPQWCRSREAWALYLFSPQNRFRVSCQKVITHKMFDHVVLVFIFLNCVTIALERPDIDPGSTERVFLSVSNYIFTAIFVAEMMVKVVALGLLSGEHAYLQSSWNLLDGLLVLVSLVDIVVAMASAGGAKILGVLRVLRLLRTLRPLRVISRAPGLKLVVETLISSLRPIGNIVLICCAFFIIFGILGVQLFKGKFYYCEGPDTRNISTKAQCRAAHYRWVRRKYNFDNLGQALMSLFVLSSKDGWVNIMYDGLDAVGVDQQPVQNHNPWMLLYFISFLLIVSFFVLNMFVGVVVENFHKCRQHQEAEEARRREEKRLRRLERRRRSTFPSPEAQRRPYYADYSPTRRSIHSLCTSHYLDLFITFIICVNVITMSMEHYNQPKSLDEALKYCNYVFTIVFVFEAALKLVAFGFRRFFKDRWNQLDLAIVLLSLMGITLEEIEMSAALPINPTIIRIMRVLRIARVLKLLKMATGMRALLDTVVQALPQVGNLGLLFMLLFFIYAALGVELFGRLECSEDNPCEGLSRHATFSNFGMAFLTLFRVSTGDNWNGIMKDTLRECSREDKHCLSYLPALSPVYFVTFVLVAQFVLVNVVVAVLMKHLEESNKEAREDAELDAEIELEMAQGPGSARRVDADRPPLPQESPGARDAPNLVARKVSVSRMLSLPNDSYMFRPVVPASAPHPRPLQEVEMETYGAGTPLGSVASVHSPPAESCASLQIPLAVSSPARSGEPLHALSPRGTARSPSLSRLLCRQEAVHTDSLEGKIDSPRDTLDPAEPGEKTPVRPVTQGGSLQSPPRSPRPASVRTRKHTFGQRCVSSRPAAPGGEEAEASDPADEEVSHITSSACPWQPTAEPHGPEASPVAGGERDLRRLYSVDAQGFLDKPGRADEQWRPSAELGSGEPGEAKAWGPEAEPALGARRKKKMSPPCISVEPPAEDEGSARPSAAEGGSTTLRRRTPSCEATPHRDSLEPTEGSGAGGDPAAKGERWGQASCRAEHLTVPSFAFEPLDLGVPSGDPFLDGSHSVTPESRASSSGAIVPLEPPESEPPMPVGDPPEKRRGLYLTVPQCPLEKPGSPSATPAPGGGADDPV

[11] = target: G-protein coupled receptor 55 (Homo sapiens, UniProt Q9Y2T6); test: inhibition of LPI-stimulated GPR55 beta-arrestin translocation – imaging, U2OS, beta-arrestin-GFP, LPI agonist, primary screen (AID 2013); type: functional;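 also: antagonist potency measured as reduced agonist-driven arrestin aggregation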
Chain of G-protein coupled receptor 55 (Q9Y2T6 whole entry, the tested form may be a part): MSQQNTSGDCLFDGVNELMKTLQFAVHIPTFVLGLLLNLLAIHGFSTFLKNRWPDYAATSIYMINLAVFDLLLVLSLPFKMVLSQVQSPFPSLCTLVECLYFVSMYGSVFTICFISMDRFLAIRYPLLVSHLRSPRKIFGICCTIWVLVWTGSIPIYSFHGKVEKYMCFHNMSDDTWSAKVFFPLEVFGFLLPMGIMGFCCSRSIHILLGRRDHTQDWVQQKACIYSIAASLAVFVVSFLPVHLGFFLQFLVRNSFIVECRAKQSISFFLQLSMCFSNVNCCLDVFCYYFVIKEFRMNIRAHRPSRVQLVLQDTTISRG

[12] = target: NACHT, LRR and PYD domains-containing protein 3 (Homo sapiens, UniProt Q96P20); test: NALP3 inhibitors in yeast, dose response, luminescent (AID 488799); type: functional
Chain of NACHT, LRR and PYD domains-containing protein 3 (Q96P20 whole entry, the tested form may be a part): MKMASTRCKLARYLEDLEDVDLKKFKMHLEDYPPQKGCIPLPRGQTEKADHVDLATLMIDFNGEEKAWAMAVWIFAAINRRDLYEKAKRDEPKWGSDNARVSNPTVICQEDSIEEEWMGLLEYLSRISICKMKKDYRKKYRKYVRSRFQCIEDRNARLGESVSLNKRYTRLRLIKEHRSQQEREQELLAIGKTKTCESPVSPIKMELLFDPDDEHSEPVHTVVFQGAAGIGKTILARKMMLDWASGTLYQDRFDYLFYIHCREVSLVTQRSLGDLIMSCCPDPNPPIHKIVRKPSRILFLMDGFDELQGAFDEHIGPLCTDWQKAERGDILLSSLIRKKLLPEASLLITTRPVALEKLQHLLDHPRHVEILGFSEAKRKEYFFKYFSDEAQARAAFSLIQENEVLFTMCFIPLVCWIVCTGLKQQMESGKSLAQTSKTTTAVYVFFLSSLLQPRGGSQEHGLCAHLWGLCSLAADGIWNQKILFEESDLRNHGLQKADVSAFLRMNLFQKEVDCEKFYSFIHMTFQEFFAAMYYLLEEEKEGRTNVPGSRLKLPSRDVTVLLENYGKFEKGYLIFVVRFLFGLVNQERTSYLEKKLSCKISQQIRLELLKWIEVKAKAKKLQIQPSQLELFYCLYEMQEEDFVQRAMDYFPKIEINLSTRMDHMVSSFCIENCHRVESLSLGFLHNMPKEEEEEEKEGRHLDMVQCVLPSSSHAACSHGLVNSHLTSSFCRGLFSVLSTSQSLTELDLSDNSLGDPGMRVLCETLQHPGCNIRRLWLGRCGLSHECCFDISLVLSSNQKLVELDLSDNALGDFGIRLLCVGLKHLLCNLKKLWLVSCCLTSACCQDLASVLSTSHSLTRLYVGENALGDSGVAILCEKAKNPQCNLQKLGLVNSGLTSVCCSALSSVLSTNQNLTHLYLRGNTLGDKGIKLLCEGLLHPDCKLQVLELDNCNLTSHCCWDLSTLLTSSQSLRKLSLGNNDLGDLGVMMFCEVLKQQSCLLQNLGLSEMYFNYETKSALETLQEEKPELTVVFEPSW

Coagulation factor XII = target: T2, Coagulation factor XII (Homo sapiens, UniProt P00748); test: Factor XIIa Dose Response Confirmation from Single Well HTS. [Related pubchem assays (depositor defined):AID701]; type: functional
T2 sequence (P00748 whole entry): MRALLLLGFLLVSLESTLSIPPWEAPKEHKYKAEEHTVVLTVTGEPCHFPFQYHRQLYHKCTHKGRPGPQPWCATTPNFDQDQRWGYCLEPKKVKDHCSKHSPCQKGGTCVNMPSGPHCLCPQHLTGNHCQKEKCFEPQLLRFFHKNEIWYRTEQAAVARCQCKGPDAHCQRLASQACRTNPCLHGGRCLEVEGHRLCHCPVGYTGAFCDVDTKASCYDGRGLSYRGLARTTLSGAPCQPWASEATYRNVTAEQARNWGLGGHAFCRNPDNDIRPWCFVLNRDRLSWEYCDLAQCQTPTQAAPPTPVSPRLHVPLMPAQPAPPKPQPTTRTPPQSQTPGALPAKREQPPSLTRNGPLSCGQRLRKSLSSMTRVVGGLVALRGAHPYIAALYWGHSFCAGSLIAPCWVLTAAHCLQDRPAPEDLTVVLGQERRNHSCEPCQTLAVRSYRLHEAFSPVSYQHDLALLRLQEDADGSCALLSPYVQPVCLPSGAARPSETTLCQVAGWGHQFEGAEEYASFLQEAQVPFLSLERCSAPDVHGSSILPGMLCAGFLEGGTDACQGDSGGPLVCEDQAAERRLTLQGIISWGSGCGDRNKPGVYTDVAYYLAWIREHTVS

[13] = Vero E6 cell cytotoxicity, dose response, cytotoxicity control for non-replicating M. tuberculosis project, secondary assay (AID 492998); type: functional, VeroE6; settings: Vero C1008
[14] = HepG2 cell cytotoxicity, dose response, cytotoxicity control for non-replicating M. tuberculosis project (AID 489018); type: functional; settings: Mycobacterium tuberculosis
[15] = target: T3, Microphthalmia-associated transcription factor (Homo sapiens, UniProt O75030); test: reducers of TRPM1 reporter luminescence, concentration series – cell-based, SK-MEL-5, cherry-picked, set 3, MITF inhibitor project, dose response (AID 493073); type: functional;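 also: SK-MEL-5 melanoma cells with luciferase driven by the MITF target TRPM1 promoter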
T3 sequence (O75030 whole entry): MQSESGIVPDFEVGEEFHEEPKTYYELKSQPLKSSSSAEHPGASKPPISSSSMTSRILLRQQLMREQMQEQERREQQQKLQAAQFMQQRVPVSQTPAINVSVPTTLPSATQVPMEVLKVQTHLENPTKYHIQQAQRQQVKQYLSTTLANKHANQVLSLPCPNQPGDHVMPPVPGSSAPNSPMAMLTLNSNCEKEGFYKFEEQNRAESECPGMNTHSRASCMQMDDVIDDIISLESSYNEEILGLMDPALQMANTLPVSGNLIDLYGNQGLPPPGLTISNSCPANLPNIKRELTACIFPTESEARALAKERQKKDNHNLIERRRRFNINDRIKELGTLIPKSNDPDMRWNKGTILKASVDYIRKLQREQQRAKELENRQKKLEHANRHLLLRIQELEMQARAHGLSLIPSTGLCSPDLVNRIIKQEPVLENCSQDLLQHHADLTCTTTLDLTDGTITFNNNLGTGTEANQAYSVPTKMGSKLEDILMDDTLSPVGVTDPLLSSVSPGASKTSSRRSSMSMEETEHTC

[16] = target: Luciferin 4-monooxygenase (Photinus pyralis, UniProt P08659); test: Counter Screen for Luciferase-based Assay Positives. [Related pubchem assays: 620, 618, 411 ]
[17] = non-specific 3'UTR reporter inhibition in Clone20-Shn3RL – cell-based, Renilla luciferase, cherry-picked, counter-screen for Shn3 inhibitor project, dose response (AID 624133); type: functional
HT-1080 = test: HT1080 cell viability loss – fluorescence readout (AID 620); type: functional, cell-based; settings: Homo sapiens
Nonstructural protein 1 = Nonstructural protein 1 (Influenza A virus, UniProt Q194T2); type: functional, Influenza A virus (A/California/07/2009(H1N1))
[18] = THP-1 cell cytotoxicity, dose response, cytotoxicity control for non-replicating M. tuberculosis project (AID 489025); type: functional
cells [19] = type: functional
[20] = loss of viability in HepG2 cells – cell-based, CellTiter-Glo, cherry-picked, cytotoxicity control for Shn3 inhibitor project, dose response (AID 624134); type: functional
cells [21] = type: functional, cell-based
[22] = reduction of Shn3 3'UTR-driven luciferase in osteoblasts – cell-based, Clone20 osteoblasts, firefly luciferase, cherry-picked, dose response (AID 624132); type: functional;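 also: firefly luciferase luminescence from reporter carrying the Shn3 3'UTR in osteoblasts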
A-375 = test: proliferation inhibition in MITF-low A375 cells – cell-based, cherry-pick samples, set 2, counter-screen for MITF modulator project, dose response (AID 540335); type: functional; settings: Homo sapiens
cells [23] = type: functional, cell-based; remark: listed apart in the source
BJ [24] = test: growth inhibition of engineered Ras-driven BJ cells – cell-based, alamar blue fluorescence, cherrypicked samples, dose response (AID 2631); type: functional; settings: Homo sapiens;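 also: confirmatory dose-response assay in RAS-dependent BJ fibroblasts engineered with TERT, LT and ST, with cytotoxicity read by fluorescence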
Trypanosoma cruzi = test: anti-trypanosomal activity in host cells – cell-based, plate reader, dry powder, set 3, dose response (AID 493197); type: functional
[25] = target: Alkaline phosphatase, placental type (Homo sapiens, UniProt P05187); test: human placental alkaline phosphatase inhibition – biochemical, luminescence, confirmation (AID 1512); type: functional
[26] = target: Glyceraldehyde-3-phosphate dehydrogenase (Homo sapiens, UniProt P04406)
Chain of Glyceraldehyde-3-phosphate dehydrogenase (P04406 whole entry): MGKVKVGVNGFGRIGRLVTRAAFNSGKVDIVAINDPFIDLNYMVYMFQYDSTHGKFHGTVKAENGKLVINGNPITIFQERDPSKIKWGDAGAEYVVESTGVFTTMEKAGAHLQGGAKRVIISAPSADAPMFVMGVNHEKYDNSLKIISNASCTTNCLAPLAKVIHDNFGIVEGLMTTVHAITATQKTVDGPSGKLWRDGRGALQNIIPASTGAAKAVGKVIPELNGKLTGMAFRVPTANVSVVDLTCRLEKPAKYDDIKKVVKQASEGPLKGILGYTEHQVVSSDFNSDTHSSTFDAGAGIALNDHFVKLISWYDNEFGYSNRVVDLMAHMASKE

[27] = Cytotoxicity screening for potential Inhibitors of Bacterial Capsule Biogenesis. [Related pubchem assays (depositor defined):AID488970]; type: functional

COc1cc(C(=O)/C=C/c2cccnc2)c([N+](=O)[O-])cc1OC
EC50 (BJ [1]): 18.6 µM (active)
EC50 (BJ [2]): > 75 µM (not active)
EC50 [3]: 32.1 µM (inactive)
CC50 [4]: 15.6 µM (active)
EC50 [5]: 9.22 µM (active)
EC50 (BJ [6]): 13 µM (active)

COc1ccc(Nc2nccc(-c3cccc(N)c3)n2)cc1
AC50 [7]: 80.7 µM (active)
AC50 [8]: 18.8 µM (active)
EC50 [9]: > 67.5 µM (inactive)

COc1ccc(-c2noc(CCC(=O)N(C)c3cccc(C)c3)n2)cc1
EC50 [10]: 6.52 µM (active)

COC(=O)C1=C(C)N(Cc2ccccc2)C(NCc2cc(OC)c(OC)c(OC)c2)=N[C@H]1c1ccccc1
IC50 [11]: 3.93 µM (active)

Cn1c(=O)c(C(=O)Nc2ncccn2)c(O)c2ccccc21
IC50 [12]: 13.6 µM (active)

N#CC1=C2SCC(O)(c3ccccc3)N2C(=O)CC1c1ccccc1F (configuration not stated)
IC50 (Coagulation factor XII): 2.02 µM (active)

CN(C)c1nc(-c2ccccn2)nnc1-c1ccccc1
EC50 (BJ [1]): 13.3 µM (inconclusive)
CC50 [13]: 5.38 µM (active)
CC50 [14]: 19.8 µM (active)
EC50 (BJ [2]): > 150 µM (inconclusive)
AC50 [15]: 6.17 µM (active)
EC50 [16]: 1.23 µM (active)
AC50 [17]: 8.3 µM (active)
EC50 (HT-1080): > 50 µM (not active)
IC50 (Nonstructural protein 1): 1.09 µM (active)
CC50 [18]: 8.1 µM (active)
IC50 (cells [19]): 6.05 µM (active)
AC50 [20]: 57.6 µM (active)
EC50 (cells [21]): > 350 µM (not active)
AC50 [22]: 3.3 µM (active)
AC50 (A-375): 39.3 µM (active)
EC50 [5]: 17.5 µM (active)
EC50 (BJ [6]): 16.5 µM (inconclusive)
EC50 (cells [23]): 7.46 µM (active)
EC50 (BJ [24]): 121 µM (inconclusive)

CCCNC(=O)C1(C)CCCN(Cc2cccc(Oc3ccccc3)c2)C1 (configuration not stated)
AC50 (Trypanosoma cruzi): 9.13 µM (active)

CC(C)NC(=O)c1cc(-c2ccc(Cl)cc2Cl)n[nH]1
IC50 [25]: > 100 µM (inactive)
IC50 [26]: > 100 µM (not active)

N=c1n(CCN2CCCC2)c2ccccc2n1CC(O)c1ccc(Cl)c(Cl)c1 (configuration not stated)
AC50 [15]: 11.8 µM (active)
CC50 [27]: 7.43 µM (active)
